Laboratory results taken from US6932961B1, “Oxazinocarbazoles for the treatment of CNS diseases” (Pharmacia & Upjohn Company, priority 2002, dated 2005).
Structures can show the parent of a compound that is named as a salt.

Key:
[1] = target: T1, cloned human 5-HT6 receptor (Homo sapiens, UniProt P50406); experiment: 5-HT6 receptor binding assay ([3H]-LSD, SPA); details: membranes of Hela cells containing cloned human 5-HT6 receptor; [3H]-LSD radioligand; Ki from estimated IC50 by Cheng-Prusoff
T1 construct: host or cells: HeLa cells (G-418 selected); membranes prepared from them
T1 sequence (P50406 whole entry): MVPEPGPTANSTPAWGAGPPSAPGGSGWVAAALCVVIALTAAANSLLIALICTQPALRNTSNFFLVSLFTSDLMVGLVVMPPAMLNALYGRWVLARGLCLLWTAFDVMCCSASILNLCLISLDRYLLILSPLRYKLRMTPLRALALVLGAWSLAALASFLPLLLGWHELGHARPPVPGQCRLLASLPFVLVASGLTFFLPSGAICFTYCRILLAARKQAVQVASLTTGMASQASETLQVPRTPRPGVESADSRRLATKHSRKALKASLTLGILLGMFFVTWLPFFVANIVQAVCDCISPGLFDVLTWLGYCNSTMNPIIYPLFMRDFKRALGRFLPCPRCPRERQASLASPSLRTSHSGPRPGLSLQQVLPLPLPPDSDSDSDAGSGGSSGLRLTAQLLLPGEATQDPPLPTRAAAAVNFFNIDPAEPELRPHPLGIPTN
Experimental: Growth of Cells and Membrane Preparation
Hela cells containing the cloned human 5-HT6 receptor were acquired from Dr. David R. Sibley's laboratory in National Institute of Health (see Sibley, D. R., J. Neurochemistr, 66, 47-56, 1996). Cells were grown in high glucose Dulbecco's modified Eagle's medium, supplemented with L-glutamine, 0.5% sodium pyruvate, 0.3% penicillin-streptomycin, 0.025% G-418 and 5% Gibco fetal bovine serum and then were harvested, when confluent, in cold phosphate buffered saline.
Harvested intact cells were washed once in cold phosphate-buffered saline. The cells were pelleted and resuspended in 100 ml of cold 50 mM Tris, 5 mM EDTA and 5 mM EGTA, pH 7.4. Homogenization was with a Vir Tishear generator, 4 cycles for 30 seconds each at setting 50. The homogenized cells were centrifuged at […] for 10 minutes and the supernatant was removed. The pellet was resuspended in 100 ml of the above buffer and rehomogenized for 2 cycles. The rehomogenized cells were then centrifuged at […] for 10 minutes and the supernatant was removed. The combined supernatant (200 ml) was centrifuged at 23,000 RPM (80,000×g) for 1 hour in a Beckman Rotor (42.1 Ti). […]
The radioligand binding assay used [^3H]-lysergic acid diethylamide (LSD). […] The plates were then loaded into counting cassettes and counted in a Wallac MicroBeta Trilux scintillation counter. […]

melting point	SMILES	Ki [1]
	NCCOc1cccc2c1c1cccc3c1n2[C@H](c1ccccc1)CO3 [Example 2, (R)−)-[(1-Phenyl-1,2-dihydro[1,4]oxazino[2,3,4-jk]carbazol-7-yl)oxy]ethanamine and its methanesulfonic acid salt]	1.8 nM
105 °C	CCNCCOc1cccc2c1c1cccc3c1n2C(c1ccccc1)CO3.O=C(O)/C=C\C(=O)O (centres unmarked) [Example 6, N-Ethyl-2-[(1-phenyl-1,2-dihydro[1,4]oxazino[2,3,4-jk]carbazol-7-yl)oxy]-ethanamine and its maleic acid salt]	
105 to 107 °C	CCN(CC)CCOc1cccc2c1c1cccc3c1n2C(c1ccccc1)CO3 (centres unmarked) (as salt: maleic acid salt) [Example 3, N,N-Diethyl-2-[(1-phenyl-1,2-dihydro[1,4]oxazino[2,3,4-jk]carbazol-7-yl)oxy]-1-ethanamine and its maleic acid salt]	
72 °C	c1ccc(C2COc3cccc4c5c(OCCN6CCNCC6)cccc5n2c34)cc1 (centres unmarked) [Example 13, 1-Phenyl-1,2-dihydro[1,4]oxazino[2,3,4-jk]carbazol-7-yl 2-(1-piperazinyl)ethyl ether]	
117 to 118 °C	CN(C)CCOc1cccc2c1c1cccc3c1n2C(c1ccccc1)CO3 (centres unmarked) [Example 18, N,N-dimethyl-2-[(1-phenyl-1,2-dihydro[1,4]oxazino[2,3,4-jk]carbazol-7-yl)oxy]-1-ethanamine]	
	CC(C)NCCOc1cccc2c1c1cccc3c1n2C(c1ccccc1)CO3 (centres unmarked) [Example 5, N-isopropyl-N-{2-[(1-phenyl-1,2-dihydro[1,4]oxazino[2,3,4-jk]carbazol-7-yl)oxy]ethyl}amine and its maleic acid salt]	7.8 nM
57 °C	CN1CCN(CCOc2cccc3c2c2cccc4c2n3C(c2ccccc2)CO4)CC1 (centres unmarked) [Example 14, 2-(4-Methyl-1-piperazinyl)ethyl 1-phenyl-1,2-dihydro[1,4]oxazino[2,3,4-jk]carbazol-7-yl ether]	

SMILES	melting point	Ki [1]
NCCOc1cccc2c1c1cccc3c1n2[C@H](c1ccccc1)CO3 (as salt: sulfonic acid salt) [Example 2, (R)−)-[(1-Phenyl-1,2-dihydro[1,4]oxazino[2,3,4-jk]carbazol-7-yl)oxy]ethanamine and its methanesulfonic acid salt]	236 °C	
